In ChEMBL document CHEMBL1123875, “Plant antitumor agents. 25. Total synthesis and antileukemic activity of ring A substituted camptothecin analogues. Structure-activity correlations” (J Med Chem, 1987):
In brackets after ≈: the same amount, converted by molar mass. Activity calls are given as the source filed them. The rule behind the calls is not given here.

Assays:
[1] = In vitro cytotoxic activity against KB cell culture.; assay type: functional; conditions: Homo sapiens, read-out: ED50 (the source's name)
L1210 [2] = experiment: Active dose range for antileukemic activity against L1210 mouse leukemia cells was reported; dose range may vary from 10 to 20; assay type: functional
L1210 [3] = experiment: Toxic dose against L1210 mouse leukemia cells was determined; assay type: toxicity
Mus musculus [4] = experiment: In vivo antileukemic activity against L-1210 mouse leukemia cells given as number of animals cured out of 6; assay type: functional
Mus musculus [5] = experiment: In vivo antileukemic activity against L-1210 mouse leukemia cells expressed as % T/C (median survival time of treated/control animals) x 100 after 10 mg/kg administration of dose; assay type: functional
Mus musculus [6] = experiment: In vivo antileukemic activity against L-1210 mouse leukemia cells expressed as KE (log10 of initial tumor cell population minus log10 of tumor cell population at end of treatment); assay type: functional
L1210 [7] = experiment: Active dose range for antileukemic activity against L1210 mouse leukemia cells was reported; dose range may vary from 7.5 to 15.5; assay type: functional
Mus musculus [8] = experiment: In vivo antileukemic activity against L-1210 mouse leukemia cells expressed as % T/C (median survival time of treated/control animals) x 100 after 15.5 mg/kg administration of dose; assay type: functional
Mus musculus [9] = experiment: In vivo antileukemic activity against L-1210 mouse leukemia cells expressed as % T/C (median survival time of treated/control animals) x 100 after 40 mg/kg administration of dose; assay type: functional
L1210 [10] = experiment: Active dose range for antileukemic activity against L1210 mouse leukemia cells was reported; dose range may vary from 10 to 80; assay type: functional
Mus musculus [11] = experiment: In vivo antileukemic activity against L-1210 mouse leukemia cells expressed as % T/C (median survival time of treated/control animals) x 100 after 2.5 mg/kg administration of dose; assay type: functional
L1210 [12] = experiment: Active dose range for antileukemic activity against L1210 mouse leukemia cells was reported; dose range may vary from 0.25 to 5.0; assay type: functional
Mus musculus [13] = experiment: In vivo antileukemic activity against L-1210 mouse leukemia cells expressed as % T/C (median survival time of treated/control animals) x 100; assay type: functional
Mus musculus [14] = experiment: In vivo antileukemic activity against L-1210 mouse leukemia cells expressed as […] (log10 of initial tumor cell population minus log10 of tumor cell population at end of treatment); assay type: functional
L1210 [15] = experiment: Active dose range for antileukemic activity against L1210 mouse leukemia cells was reported; assay type: functional
Mus musculus [16] = experiment: In vivo antileukemic activity against L-1210 mouse leukemia cells and number of animals cured out of 6; assay type: functional
Mus musculus [17] = experiment: (§1) In vivo antileukemic activity against L-1210 mouse leukemia cells expressed as % T/C (median survival time of treated/control animals) x 100; IA means inactive; assay type: functional, organism-based
L1210 [18] = experiment: Active dose range for antileukemic activity against L1210 mouse leukemia cells was reported; dose range may vary from 7.5 to 60; assay type: functional
Mus musculus [19] = experiment: In vivo antileukemic activity against L-1210 mouse leukemia cells expressed as % T/C (median survival time of treated/control animals) x 100 after 60 mg/kg administration of dose; assay type: functional
L1210 [20] = experiment: Active dose range for antileukemic activity against L1210 mouse leukemia cells was reported; dose range may vary from 20 to 80; assay type: functional
Mus musculus [21] = experiment: In vivo antileukemic activity against L-1210 mouse leukemia cells expressed as % T/C (median survival time of treated/control animals) x 100 after 80 mg/kg administration of dose; assay type: functional
KB [22] = experiment: In vitro cytotoxic activity against KB cell culture, expressed as ED50 (concentration resulting in a 50% cell number reduction) was determined; IA means inactive; assay type: functional, cell-based; conditions: Homo sapiens
Mus musculus [23] = experiment: In vivo antileukemic activity against L-1210 mouse leukemia cells expressed as % T/C (median survival time of treated/control animals) x 100 after 3.75 mg/kg administration of dose; assay type: functional
L1210 [24] = experiment: Active dose range for antileukemic activity against L1210 mouse leukemia cells was reported; dose range may vary from 2 to 15.5; assay type: functional
L1210 [25] = experiment: In vivo antileukemic activity against L-1210 mouse leukemia cells expressed as % T/C (median survival time of treated/control animals) x 100; In active; assay type: functional, organism-based
KB [26] = experiment: In vitro cytotoxic activity against KB cell culture, expressed as ED50 (concentration resulting in a 50% cell number reduction) was determined; In active; assay type: functional, cell-based; conditions: Homo sapiens
Mus musculus [27] = experiment: as §1; assay type: functional, organism-based; remark: listed apart in the source
Mus musculus [28] = experiment: In vivo antileukemic activity against L-1210 mouse leukemia cells expressed as % T/C (median survival time of treated/control animals) x 100 after 2 mg/kg administration of dose; assay type: functional
L1210 [29] = experiment: Active dose range for antileukemic activity against L1210 mouse leukemia cells was reported 2 to 4; assay type: functional

| Compound | EC50 [1] [µg/mL] | Toxic dose (L1210 [3]) [mg/kg] | No. of cures (Mus musculus [4]) | KE (Mus musculus [6]) [log10 units] | other results |
| --- | --- | --- | --- | --- | --- |
| CCC1(O)C(=O)OCc2c1cc1n(c2=O)Cc2cc3cc(Cl)ccc3nc2-1 (centres undefined) | 0.01 (≈ 0.0261 µM) | 40 | 2 | ≥ 5.97 | Active dose range (L1210 [2]): 20 mg/kg; T/C (Mus musculus [5]): 280% |
| CCC1(O)C(=O)OCc2c1cc1n(c2=O)Cc2cc3cc([N+](=O)[O-])ccc3nc2-1 (centres undefined) | 0.3 (≈ 0.763 µM) | 31 | 1 | ≥ 5.86 | Active dose range (L1210 [7]): 15.5 mg/kg; T/C (Mus musculus [8]): 219% |
| CCC1(O)C(=O)OCc2c1cc1n(c2=O)Cc2cc3ccc(N)cc3nc2-1 (centres undefined) | 0.02 (≈ 0.055 µM) | > 80 | 0 | 0.29 | T/C (Mus musculus [9]): 147%; Active dose range (L1210 [10]): 80 mg/kg |
| CCC1(O)C(=O)OCc2c1cc1n(c2=O)Cc2cc3ccc(CN)cc3nc2-1 (centres undefined) [listing 1 of 2 here] | 2 (≈ 5.3 µM) | – | – | – | – |
| CC[C@@]1(O)C(=O)OCc2c1cc1n(c2=O)Cc2cc3c(N)cccc3nc2-1 [9-AMINOCAMPTOTHECIN] | 0.02 (≈ 0.055 µM) | 10 | 4 | ≥ 5.97 | T/C (Mus musculus [11]): 361%; Active dose range (L1210 [12]): 5 mg/kg |
| Br.CCC1(O)C(=O)OCc2c1cc1n(c2=O)Cc2cc3cc(O)c(O)cc3nc2-1 (centres undefined) | 3 | > 80 | – | – | T/C (Mus musculus [13]): 173%; T/C (Mus musculus [14]): 2.62%; Active dose range (L1210 [15]): 10 mg/kg; No. of cures (Mus musculus [16]): 0 |
| CCC1(O)C(=O)OCc2c1cc1n(c2=O)Cc2cc3ccc(CO)cc3nc2-1 (centres undefined) | 0.3 (≈ 0.793 µM) | – | – | – | T/C (Mus musculus [17]): inactive |
| CCC1(O)C(=O)OCc2c1cc1n(c2=O)Cc2cc3cc(OC)c(OC)cc3nc2-1 (centres undefined) | 9 (≈ 22 µM) | – | – | – | T/C (Mus musculus [17]): inactive |
| CCC1(O)C(=O)OCc2c1cc1n(c2=O)Cc2cc3ccc(O)cc3nc2-1 (centres undefined) | 0.02 (≈ 0.0549 µM) | > 60 | 3 | ≥ 5.68 | Active dose range (L1210 [18]): 60 mg/kg; T/C (Mus musculus [19]): 357% |
| CCC1(O)C(=O)OCc2c1cc1n(c2=O)Cc2cc3ccc(C)cc3nc2-1 (centres undefined) | 0.9 (≈ 2.48 µM) | > 80 | 0 | -0.68 | T/C (Mus musculus [9]): 136%; Active dose range (L1210 [20]): 80 mg/kg |
| CCC1(O)C(=O)OCc2c1cc1n(c2=O)Cc2cc3ccc([N+](=O)[O-])cc3nc2-1 (centres undefined) | 3 (≈ 7.63 µM) | > 80 | 0 | 0.29 | T/C (Mus musculus [21]): 147%; Active dose range (L1210 [20]): 80 mg/kg |
| CCC1(O)C(=O)OCc2c1cc1n(c2=O)Cc2cc3ccc(N(C)C)cc3nc2-1 (centres undefined) | – | – | – | – | T/C (Mus musculus [17]): inactive; ED50 (KB [22]): inactive |
| CCC1(O)C(=O)OCc2c1cc1n(c2=O)Cc2cc3ccc(C(=O)OC)cc3nc2-1 (centres undefined) | 5 (≈ 12.3 µM) | – | – | – | T/C (Mus musculus [17]): inactive |
| CCC1(O)C(=O)OCc2c1cc1n(c2=O)Cc2cc3cc(C)ccc3nc2-1 (centres undefined) | 0.08 (≈ 0.221 µM) | > 80 | 0 | 4.66 | T/C (Mus musculus [5]): 207%; Active dose range (L1210 [10]): 80 mg/kg |
| CCC1(O)C(=O)OCc2c1cc1n(c2=O)Cc2cc3ccc(CN)cc3nc2-1.Cl (centres undefined) | 4 | – | – | – | – |
| CCC1(O)C(=O)OCc2c1cc1n(c2=O)Cc2cc3ccc(C(F)(F)F)cc3nc2-1 (centres undefined) | 0.9 (≈ 2.16 µM) | – | – | – | T/C (Mus musculus [17]): inactive |
| CCC1(O)C(=O)OCc2c1cc1n(c2=O)Cc2cc3cc(N)ccc3nc2-1 (centres undefined) | 0.03 (≈ 0.0826 µM) | 32 | 3 | ≥ 5.97 | T/C (Mus musculus [23]): 365%; Active dose range (L1210 [24]): 15.5 mg/kg |
| CCC1(O)C(=O)OCc2c1cc1n(c2=O)Cc2cc3ccc(C=O)cc3nc2-1 (centres undefined) | 5 (≈ 13.3 µM) | – | – | – | T/C (L1210 [25]): inactive |
| CCC1(O)C(=O)OCc2c1cc1n(c2=O)Cc2cc3ccc(/C=N\N=C(N)N)cc3nc2-1 (racemic) | – | – | – | – | ED50 (KB [26]): inactive; T/C (L1210 [25]): inactive |
| CCC1(O)C(=O)OCc2c1cc1n(c2=O)Cc2cc3ccc(C#N)cc3nc2-1 (centres undefined) | 0.3 (≈ 0.803 µM) | 20 | 3 | ≥ 5.79 | Active dose range (L1210 [2]): <=20 mg kg-1; T/C (Mus musculus [5]): 365% |
| CCC1(O)C(=O)OCc2c1cc1n(c2=O)Cc2cc3ccc(CN)cc3nc2-1 (centres undefined) [listing 2 of 2 here] | – | – | – | – | T/C (Mus musculus [17]): inactive |
| CCC1(O)C(=O)OCc2c1cc1n(c2=O)Cc2cc3cc(O)c(O)cc3nc2-1 (centres undefined) | 1 (≈ 2.63 µM) | > 80 | – | – | T/C (Mus musculus [13]): 153%; T/C (Mus musculus [14]): 0.87%; Active dose range (L1210 [15]): 10 mg/kg; No. of cures (Mus musculus [16]): 1 |
| CCC1(O)C(=O)OCc2c1cc1n(c2=O)Cc2cc3ccc(C(=O)[O-])cc3nc2-1.[Na+] (centres undefined) | 0.3 | – | – | – | T/C (Mus musculus [27]): inactive; T/C (Mus musculus [17]): inactive; ED50 (KB [22]): inactive |
| CCC1(O)C(=O)OCc2c1cc1n(c2=O)Cc2cc3cc4c(cc3nc2-1)OCO4 (centres undefined) | 0.007 (≈ 0.0178 µM) | > 8 | 2 | ≥ 5.97 | T/C (Mus musculus [28]): 325%; Active dose range (L1210 [29]): 4 mg/kg |
